In patent US9388140B2, “Substituted benzimidazoles” (priority 2011, dated 2016):

Molecular target: human kinase Mps-1 (Homo sapiens (Human), UniProt P33981)
Assay: Mps-1 kinase assay (TR-FRET)
Assay type: biochemical
Details: N-terminally GST-tagged human full length recombinant Mps-1; 10 μM ATP; 1 μM biotinylated peptide substrate; read-out: Mps1 IC50
Method: The human kinase Mps-1 phosphorylates a biotinylated substrate peptide. Detection of the phosphorylated product is achieved by time-resolved fluorescence resonance energy transfer (TR-FRET) from Europium-labelled anti-phospho-Serine/Threonine antibody as donor to streptavidin labelled with cross-linked allophycocyanin (SA-XLent) as acceptor. Compounds are tested for their inhibition of the kinase activity.
N-terminally GST-tagged human full length recombinant Mps-1 kinase (purchased from Invitrogen, Karslruhe, Germany, cat. no PV4071) was used. As substrate for the kinase reaction a biotinylated peptide of the amino-acid sequence […] (C-terminus in amide form, purchased from Biosynthan GmbH, Berlin) was used.
The concentration of Mps-1 in the assay was adjusted to the activity of the enzyme lot and was chosen appropriate to have the assay in the linear range, typical enzyme concentrations were in the range of about 1 nM (final conc. in the 5 μl assay volume).
The resulting mixture was incubated 1 h at 22° C. to allow the binding of the phosphorylated peptide to the anti-phospho(Ser/Thr)-Europium-antibody. Subsequently the amount of phosphorylated substrate was evaluated by measurement of the resonance energy transfer from the Europium-labelled anti-phospho(Ser/Thr) antibody to the Streptavidin-XLent.

Sequence of human kinase Mps-1 (P33981 whole entry): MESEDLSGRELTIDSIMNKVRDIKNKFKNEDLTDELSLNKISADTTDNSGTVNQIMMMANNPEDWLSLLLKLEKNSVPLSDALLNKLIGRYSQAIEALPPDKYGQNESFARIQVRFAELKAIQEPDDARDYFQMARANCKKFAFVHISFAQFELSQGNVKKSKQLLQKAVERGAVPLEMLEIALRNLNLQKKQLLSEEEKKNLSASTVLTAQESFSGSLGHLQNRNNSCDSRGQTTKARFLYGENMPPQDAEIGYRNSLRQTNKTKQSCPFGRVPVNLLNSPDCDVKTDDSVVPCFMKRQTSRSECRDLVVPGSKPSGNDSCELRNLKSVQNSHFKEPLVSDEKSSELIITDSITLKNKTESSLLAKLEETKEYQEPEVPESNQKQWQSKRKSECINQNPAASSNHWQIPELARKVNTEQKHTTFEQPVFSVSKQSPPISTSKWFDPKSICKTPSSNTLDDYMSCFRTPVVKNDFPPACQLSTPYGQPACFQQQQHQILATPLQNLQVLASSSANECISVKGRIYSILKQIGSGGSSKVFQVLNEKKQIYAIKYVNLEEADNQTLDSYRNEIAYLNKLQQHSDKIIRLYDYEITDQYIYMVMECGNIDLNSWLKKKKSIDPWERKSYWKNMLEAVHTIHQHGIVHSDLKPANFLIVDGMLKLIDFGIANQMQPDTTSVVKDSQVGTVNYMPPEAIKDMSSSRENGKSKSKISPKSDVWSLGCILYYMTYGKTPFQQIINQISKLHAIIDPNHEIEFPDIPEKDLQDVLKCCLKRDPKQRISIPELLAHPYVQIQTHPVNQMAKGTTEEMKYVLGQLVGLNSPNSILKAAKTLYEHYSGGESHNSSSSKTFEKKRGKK

SMILES | IC50 [nM]
COc1ccc(C(C)(O)c2cc(NCCC(F)(F)F)c3ncn(-c4ccc(C(=O)NC5CC5)c(C)c4)c3c2)cc1F (racemic) [Example 103A, N-cyclopropyl-4-{6-[(1RS)-1-(3-fluoro-4-methoxyphenyl)-1-hydroxyethyl]-4-[(3,3,3-trifluoropropyl)amino]-1H-benzimidazol-1-yl}-2-methylbenzamide] | 2.7
COc1ccc(C(C)c2cc(NCCC(F)(F)F)c3ncn(-c4ccc(C(=O)NC5CC5)c(C)c4)c3c2)cc1F (racemic) [Example 105, N-cyclopropyl-4-{6-[(1RS)-1-(3-fluoro-4-methoxyphenyl)ethyl]-4-[(3,3,3-trifluoropropyl)amino]-1H-benzimidazol-1-yl}-2-methylbenzamide] | 2.9
Cc1ccc(F)cc1Nc1cc(NCCC(F)(F)F)c2ncn(-c3ccc(C(=O)NC4CC4)c(C)c3)c2c1 [Example 3, N-Cyclopropyl-4-{6-[(5-fluoro-2-methylphenyl)amino]-4-[(3,3,3-trifluoropropyl)amino]-1H-benzimidazol-1-yl}-2-methylbenzamide] | 1.5
Cc1cc(-n2cnc3c(NCCC(F)(F)F)cc(Nc4cccc(F)c4F)cc32)ccc1C(=O)NC1CC1 [Example 5, N-cyclopropyl-4-{6-[(2,3-difluorophenyl)amino]-4-[(3,3,3-trifluoropropyl)amino]-1H-benzimidazol-1-yl}-2-methylbenzamide] | 2.3
CC(C)CNc1cc(Br)cc2c1ncn2-c1ccc(C(=O)NC2CC2)cc1 [Example 6, 4-{6-bromo-4-[(2-methylpropyl)amino]-1H-benzimidazol-1-yl}-N-cyclopropylbenzamide] | 16.6
CC(C)CNc1cc(-c2ccc(F)cc2)cc2c1ncn2-c1ccc(C(=O)NC2CC2)cc1 [Example 7, N-cyclopropyl-4-{6-(4-fluorophenyl)-4-[(2-methylpropyl)amino]-1H-benzimidazol-1-yl}benzamide] | 1.9
CNC(=O)c1ccc(-n2cnc3c(NCCC(F)(F)F)cc(Oc4cccc(F)c4)cc32)cc1C [Example 10, 4-{6-(3-Fluorophenoxy)-4-[(3,3,3-trifluoropropyl)amino]-1H-benzimidazol-1-yl}-N,2-dimethylbenzamide] | 4.7
CCNC(=O)c1ccc(-n2cnc3c(NCCC(F)(F)F)cc(Oc4cccc(F)c4)cc32)cc1C [Example 11, N-ethyl-4-{6-(3-fluorophenoxy)-4-[(3,3,3-trifluoropropyl)amino]-1H-benzimidazol-1-yl}-2-methylbenzamide] | 6.6
Cc1cc(-n2cnc3c(NCCC(F)(F)F)cc(Oc4cccc(F)c4)cc32)ccc1C(=O)NC1(C)CC1 [Example 12, 4-{6-(3-Fluorophenoxy)-4-[(3,3,3-trifluoropropyl)amino]-1H-benzimidazol-1-yl}-2-methyl-N-(1-methylcyclopropyl)benzamide] | 15.3
Cc1cc(-n2cnc3c(NCCC(F)(F)F)cc(Oc4cccc(F)c4)cc32)ccc1C(=O)NC1(C#N)CC1 [Example 13, N-(1-cyanocyclopropyl)-4-{6-(3-fluorophenoxy)-4-[(3,3,3-trifluoropropyl)amino]-1H-benzimidazol-1-yl}-2-methylbenzamide] | 48.7
Cc1cc(-n2cnc3c(NCCC(F)(F)F)cc(Oc4ccc(Cl)cc4)cc32)ccc1C(=O)NC1CC1 [Example 18, 4-{6-(4-Chlorophenoxy)-4-[(3,3,3-trifluoropropyl)amino]-1H-benzimidazol-1-yl}-N-cyclopropyl-2-methylbenzamide] | 2.4
Cc1cc(-n2cnc3c(NCC4CCOCC4)cc(-c4ccccc4CO)cc32)ccc1C(=O)NC1CC1 [Example 20, N-cyclopropyl-4-{6-[2-(hydroxymethyl)phenyl]-4-[(tetrahydro-2H-pyran-4-ylmethyl)amino]-1H-benzimidazol-1-yl}-2-methylbenzamide] | 1.5
Cc1cc(-n2cnc3c(NCCC(F)(F)F)cc(-c4ccccc4CO)cc32)ccc1C(=O)NC1CC1 [Example 21, N-cyclopropyl-4-{6-[2-(hydroxymethyl)phenyl]-4-[(3,3,3-trifluoropropyl)amino]-1H-benzimidazol-1-yl}-2-methylbenzamide] | 1.8
Cc1cc(-n2cnc3c(NCC4CCOCC4)cc(Oc4ccc(Cl)c(F)c4)cc32)ccc1C(=O)NC1CC1 [Example 22, 4-{6-(4-Chloro-3-fluorophenoxy)-4-[(tetrahydro-2H-pyran-4-ylmethyl)amino]-1H-benzimidazol-1-yl}-N-cyclopropyl-2-methylbenzamide] | 2.7
Cc1cc(-n2cnc3c(NCC4CCOCC4)cc(Oc4ccc(Cl)cc4)cc32)ccc1C(=O)NC1CC1 [Example 23, 4-{6-(4-Chlorophenoxy)-4-[(tetrahydro-2H-pyran-4-ylmethyl)amino]-1H-benzimidazol-1-yl}-N-cyclopropyl-2-methylbenzamide] | 2.2
Cc1cc(F)cc(Oc2cc(NCCC(F)(F)F)c3ncn(-c4ccc(C(=O)NC5CC5)c(C)c4)c3c2)c1 [Example 26, N-cyclopropyl-4-{6-(3-fluoro-5-methylphenoxy)-4-[(3,3,3-trifluoropropyl)amino]-1H-benzimidazol-1-yl}-2-methylbenzamide] | 1.8
Cc1cc(-n2cnc3c(NCCC(F)(F)F)cc(Oc4ccc(Cl)c(F)c4)cc32)ccc1C(=O)NC1CC1 [Example 28, 4-{6-(4-Chloro-3-fluorophenoxy)-4-[(3,3,3-trifluoropropyl)amino]-1H-benzimidazol-1-yl}-N-cyclopropyl-2-methylbenzamide] | 3.1
Cc1cc(-n2cnc3c(NCCC(F)(F)F)cc(-c4ccnn4C)cc32)ccc1C(=O)NC1CC1 [Example 30, N-cyclopropyl-2-methyl-4-{6-(1-methyl-1H-pyrazol-5-yl)-4-[(3,3,3-trifluoropropyl)amino]-1H-benzimidazol-1-yl}benzamide] | 4.8

The next compounds have a lower IC50 than those just listed; values first:

IC50 [nM] | SMILES
1.4 | Cc1cc(-n2cnc3c(NCCC(F)(F)F)cc(Oc4ccc(F)c(F)c4)cc32)ccc1C(=O)NC1CC1 [Example 27, N-cyclopropyl-4-{6-(3,4-difluorophenoxy)-4-[(3,3,3-trifluoropropyl)amino]-1H-benzimidazol-1-yl}-2-methylbenzamide]
1.2 | Cc1ccc(F)cc1Nc1cc(NCC2CCOCC2)c2ncn(-c3ccc(C(=O)NC4CC4)c(C)c3)c2c1 [Example 19, N-cyclopropyl-4-{6-[(5-fluoro-2-methylphenyl)amino]-4-[(tetrahydro-2H-pyran-4-ylmethyl)amino]-1H-benzimidazol-1-yl}-2-methylbenzamide]
1.1 | Cc1cc(-n2cnc3c(NCC4CCOCC4)cc(Oc4ccc(F)c(F)c4)cc32)ccc1C(=O)NC1CC1 [Example 17, N-cyclopropyl-4-{6-(3,4-difluorophenoxy)-4-[(tetrahydro-2H-pyran-4-ylmethyl)amino]-1H-benzimidazol-1-yl}-2-methylbenzamide]
0.9 | COc1ccc(Oc2cc(NCCC(F)(F)F)c3ncn(-c4ccc(C(=O)NC5CC5)c(C)c4)c3c2)c(F)c1 [Example 29, N-cyclopropyl-4-{6-(2-fluoro-4-methoxyphenoxy)-4-[(3,3,3-trifluoropropyl)amino]-1H-benzimidazol-1-yl}-2-methylbenzamide]
0.7 | Cc1cc(-n2cnc3c(NCCC(F)(F)F)cc(Oc4cccc(F)c4)cc32)ccc1C(=O)NC1CC1 [Example 4, N-cyclopropyl-4-{6-(3-fluorophenoxy)-4-[(3,3,3-trifluoropropyl)amino]-1H-benzimidazol-1-yl}-2-methylbenzamide]
0.6 | Cc1cc(F)cc(Oc2cc(NCC3CCOCC3)c3ncn(-c4ccc(C(=O)NC5CC5)c(C)c4)c3c2)c1 [Example 15, N-cyclopropyl-4-{6-(3-fluoro-5-methylphenoxy)-4-[(tetrahydro-2H-pyran-4-ylmethyl)amino]-1H-benzimidazol-1-yl}-2-methylbenzamide]
0.6 | Cc1ccc(F)cc1Oc1cc(NCC2CCOCC2)c2ncn(-c3ccc(C(=O)NC4CC4)c(C)c3)c2c1 [Example 16, N-cyclopropyl-4-{6-(5-fluoro-2-methylphenoxy)-4-[(tetrahydro-2H-pyran-4-ylmethyl)amino]-1H-benzimidazol-1-yl}-2-methylbenzamide]
0.5 | Cc1cc(-n2cnc3c(NCCC(F)(F)F)cc(Oc4cccc(F)c4F)cc32)ccc1C(=O)NC1CC1 [Example 14, N-cyclopropyl-4-{6-(2,3-difluorophenoxy)-4-[(3,3,3-trifluoropropyl)amino]-1H-benzimidazol-1-yl}-2-methylbenzamide]
0.4 | Cc1cc(-n2cnc3c(NCC4CCOCC4)cc(Oc4cccc(F)c4)cc32)ccc1C(=O)NC1CC1 [Example 9, N-cyclopropyl-4-{6-(3-fluorophenoxy)-4-[(tetrahydro-2H-pyran-4-ylmethyl)amino]-1H-benzimidazol-1-yl}-2-methylbenzamide]
0.2 | Cc1cc(-n2cnc3c(NCCC(F)(F)F)cc(-c4ccncc4)cc32)ccc1C(=O)NC1CC1 [Example 2, N-cyclopropyl-2-methyl-4-{6-(pyridin-4-yl)-4-[(3,3,3-trifluoropropyl)amino]-1H-benzimidazol-1-yl}benzamide]
0.2 | Cc1cc(-n2cnc3c(NCC4CCOCC4)cc(Oc4cccc(F)c4F)cc32)ccc1C(=O)NC1CC1 [Example 25, N-cyclopropyl-4-{6-(2,3-difluorophenoxy)-4-[(tetrahydro-2H-pyran-4-ylmethyl)amino]-1H-benzimidazol-1-yl}-2-methylbenzamide]
